# Source: US12012404B2, “Pyrimidoheterocyclic compounds and application thereof” (D3 BIO (WUXI) CO., LTD., priority 2020, dated 2024)
# Assays:
# Format in all cases: in vitro ADME
# [1] = In vitro stability in liver microsomes, SD rats; conditions: 0.5 mg/mL
# Protocol: Purpose of the assay: Metabolic stabilities of the assay compounds in liver microsomes of CD-1 mice, SD rats, beagle dogs, cynomolgus monkeys, and human were assayed, respectively.
# Procedure of the assay: Two 96-well incubation plates were prepared and named T60 incubation plate and NCF60 incubation plate, respectively. 445 μL of microsomal working solutions (liver microsomal protein concentration of 0.56 mg/mL) were added to the T60 incubation plate and the NCF60 incubation plate, respectively, and then the above incubation plates were pre-incubated in a 37° C. water bath for about 10 minutes.
# After the pre-incubation, 5 μL of working solutions of the assay sample or the control compound were added to the T60 incubation plate and the NCF60 incubation plate, respectively, and the mixture was mixed well. 50 μL of potassium phosphate buffer was added to each well of the NCF60 incubation plate to initiate the reaction. 180 μL of stop solution (200 ng/mL tolbutamide and 200 ng/mL labetalol in acetonitrile) and 6 uL of NADPH regeneration system working solution were added to the T0 stop plate, and 54 μL of sample was transferred from T60 incubation plate to T0 stop plate (generation of TO sample). The reaction was initiated by adding 44 μL of NADPH regeneration system working solution to each well of the T60 incubation plate. Only 54 μL of microsome working solution, 6 uL of NADPH regeneration system working solution and 180 μL of stop solution were added to the Blank plate. Therefore, in samples of the assay compound or the control compound, the final reaction concentration of compound, testosterone, diclofenac and propafenone was 1 μM, the concentration of liver microsomes was 0.5 mg/mL, and the final reaction concentrations of DMSO and acetonitrile in the reaction system were 0.01% (v/v) and 0.99% (v/v), respectively.
# After an appropriate time (e.g., 5, 15, 30, 45 and 60 minutes) of incubation, 180 μL of stop solutions (200 ng/mL tolbutamide and 200 ng/mL labetalol in acetonitrile) were added to the sample wells of each stop plate, respectively. 60 μL of sample was removed from the T60 incubation plate to stop the reaction. All sample plates were shaken well and then centrifuged at 3220×g for 20 minutes. Then 80 μL of supernatant was taken out from each well, and diluted in 240 μL of pure water for liquid chromatography-tandem mass spectrometry analysis. All samples were injected and analyzed by liquid chromatography-tandem mass spectrometry.
# [2] = Stability assay in plasma, human; conditions: 2 μM, 37° C.
# Protocol: Purpose of the assay: Stabilities of the assay compounds in plasma of CD-1 mice and human were assayed, respectively.
# Procedure of the assay: Cryopreserved plasma was thawed for 10-20 min. After the plasma was completely thawed, it was placed in a centrifuge and centrifuged at 3220×g for 5 min to remove any suspended matter and sediment in the plasma. 96-well incubation plates were prepared and named TO, T10, T30, T60, T120, respectively. 98 μL of blank plasmas of mouse, rat, canine, monkey and human were added to the corresponding incubation plates, then 2 μL of working solutions of the compound or the control compound were added to the corresponding plates in duplicate. All samples were incubated in a 37° C. water bath. The final incubation concentrations of the compound and the control compounds bisacodyl, enalapril maleate, procaine and probanthine were 2 μM, and the final organic phase content was 2.0%. At the end of incubation for each time point, the corresponding incubation plate was removed and 400 μL of a solution of 200 ng/mL of tolbutamide and labetalol in acetonitrile was added to each corresponding sample well to precipitate the protein. All sample plates were sealed and shaken well, and then centrifuged at 3220×g for 20 minutes. 50 μL of supernatant was taken out and diluted in 100 μL of ultrapure water. All samples were mixed well and then analyzed by LC/MS/MS.
# [3] = Stability assay in whole blood, SD rats; conditions: 5 μM, 37° C.
# Protocol: (§1) Purpose of the assay: Stabilities of the assay compounds in whole blood of CD-1 mice, SD rats, Beagle dogs and cynomolgus monkeys were assayed, respectively.
# (§2) Procedure of the assay: On the day of the assay or the day before the assay, fresh whole blood from CD-1 mice, SD rats, beagle dogs, and cynomolgus monkeys was collected using anticoagulant EDTA-K2. Prior to the start of the assay, the whole blood was mixed with PBS in 1:1 (v:v) and the mixture was preheated in a 37° C. water bath for 10-20 minutes. […] […] All samples were incubated in a 37° C. water bath. The final incubation concentration of the compound was 5 μM and the final incubation concentration of the control compound was 2 μM. At the end of incubation for each time point, the corresponding incubation plate was removed and 100 μL of ultrapure water was immediately added to the corresponding sample wells, and mixed well. 800 μL of a solution of 200 ng/mL tolbutamide and labetalol in acetonitrile was added to precipitate the protein. The sample plates were sealed and shaken well, and then centrifuged at 3220×g for 20 min. 150 μL of supernatant was taken out and analyzed by LC/MS/MS.
# [4] = Stability assay in whole blood, beagle dogs; conditions: 5 μM, 37° C.
# Protocol: as §1, §2
# [5] = test system: plasma protein of SD rats; experiment: Protein binding rate by equilibrium dialysis, SD rats plasma; conditions: for Protein unbound rate: SD rats plasma, 2 μM, dialysis 4 hours
# Protocol: (§3) Purpose of the assay: Protein binding rate of the assay compounds in plasma of CD-1 mice, SD rats, beagle dogs, cynomolgus monkeys and human was determined by equilibrium dialysis.
# (§4) Procedure of the assay: Plasma samples with a compound concentration of 2 μM were prepared using plasma of the above five species, placed in a 96-well equilibrium dialysis device, and dialyzed with phosphate buffer solution at 37±1° C. for 4 hours. Warfarin was used as the control compound in this assay. The concentrations of the assay compounds in plasma and dialysis buffer were determined by LC-MS/MS method.
# [6] = test system: plasma protein of cynomolgus monkeys; experiment: Protein binding rate by equilibrium dialysis, cynomolgus monkeys plasma; conditions: 2 μM, dialysis 4 hours
# Protocol: as §3, §4
# [7] = test system: plasma protein of beagle dogs; experiment: Protein binding rate by equilibrium dialysis, beagle dogs plasma; conditions: 2 μM, dialysis 4 hours
# Protocol: as §3, §4
CLint(liver) ([1]; 1 μM),T1/2 ([1]; 1 μM),"Plasma protein unbound rate PPB (Unbound %) ([5]; SD rats, as listed in PK Table 8)",Structure (SMILES),CLint(mic) ([1]; 1 μM),Detection of assay compound content within 120 min [2],Detection of assay compound content within [3],Detection of assay compound content within 120 min [4],Protein unbound rate [5],Protein unbound rate [6],Protein unbound rate [7],CLint scaled at 1 μM ([1]; rat),half-life at 1 μM ([1]; rat)
<17.3 mL/min/kg,>145 min,9.8%,"C=C(F)C(=O)N1CCN(c2nc(OCC3CCCN3C)nc3c2COC(c2c(F)c(N)cc(C)c2C(F)(F)F)C3)CC1CC#N.Cl (single isomer, unassigned) [Compound 8B hydrochloride]",< 9.6 µL/min/mg,114%,104%,96%,9.8,23.9,6.0,,
,,,C=C(F)C(=O)N1CCN(c2nc(OC[C@@]34CCCN3C[C@H](F)C4)nc3c2COC(c2c(F)c(N)cc(C)c2C(F)(F)F)C3)C[C@@H]1CC#N (stereo partly shown) [Compound 17],60.2 µL/min/mg,93%,115%,102%,4.8,7.8,3.3,108 mL/min/kg,23 min
